Source: article PMC10762035, “Molecular basis of human trace amine-associated receptor 1 activation” (Nature Communications, 2024)
Residue numbers refer to the chain shown, from its start. Values joined by “and” are separate entries in the source; they are usually repeats but may differ in a detail not shown here. Equal values may be shown once.

Columns and labels:
Assay type in all cases: cell-based
hTA1 W264F = molecular target: T1, hTA1 W264F (Homo sapiens, UniProt Q96RJ0, W264F); experiment: GloSensor cAMP accumulation assay, W264F mutant;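 also: cells transiently transfected with receptor plus GloSensor, luminescence read 30 min after agonist addition at room temperature, concentration-response curves fitted by log(agonist) vs response regression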
T1 construct: expressed in transfected cells; host or cells: HEK293T
T1 sequence (Q96RJ0 1-339 W264F): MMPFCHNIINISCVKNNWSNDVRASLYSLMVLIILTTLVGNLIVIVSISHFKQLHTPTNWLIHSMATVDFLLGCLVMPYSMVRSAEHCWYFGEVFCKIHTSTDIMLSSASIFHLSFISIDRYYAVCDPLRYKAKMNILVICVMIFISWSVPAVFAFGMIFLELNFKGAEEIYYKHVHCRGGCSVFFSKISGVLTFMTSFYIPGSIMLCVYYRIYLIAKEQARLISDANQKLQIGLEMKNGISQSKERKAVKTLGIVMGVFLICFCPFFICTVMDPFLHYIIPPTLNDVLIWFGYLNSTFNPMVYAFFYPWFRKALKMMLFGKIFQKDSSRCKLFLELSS

hTA1 T271A = molecular target: T2, hTA1 T271A (Homo sapiens, UniProt Q96RJ0, T271A); experiment: GloSensor cAMP accumulation assay, T271A mutant
T2 construct: expressed in transfected cells; host or cells: HEK293T
T2 sequence (Q96RJ0 1-339 T271A): T1 sequence (Q96RJ0 1-339 W264F) with F264W, T271A

hTA1 C96S = molecular target: T3, hTA1 C96S (Homo sapiens, UniProt Q96RJ0, C96S); experiment: GloSensor cAMP accumulation assay, C96S mutant; settings: log[Compound]
T3 construct: expressed in transfected cells; host or cells: HEK293T
T3 sequence (Q96RJ0 1-339 C96S): T1 sequence (Q96RJ0 1-339 W264F) with C96S, F264W

hTA1 F195T = molecular target: T4, hTA1 F195T (Homo sapiens, UniProt Q96RJ0, F195T); experiment: GloSensor cAMP accumulation assay, F195T mutant;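 also: cells transiently co-expressing HA-FLAG-tagged hTA1 and the GloSensor cAMP biosensor, luminescence read 30 min after agonist addition at room temperature, concentration-response fitted by nonlinear regression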
T4 construct: expressed in transfected cells; host or cells: HEK293T
T4 sequence (Q96RJ0 1-339 F195T): T1 sequence (Q96RJ0 1-339 W264F) with F195T, F264W

hTA1 I290N = molecular target: T5, hTA1 I290N (Homo sapiens, UniProt Q96RJ0, I290N); experiment: GloSensor cAMP accumulation assay, I290N mutant;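 also: cells transiently co-expressing hTA1 and the GloSensor cAMP biosensor, luminescence read 30 min after compound addition at room temperature, efficacy scaled to the maximal β-PEA response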
T5 construct: expressed in transfected cells; host or cells: HEK293T
T5 sequence (Q96RJ0 1-339 I290N): T1 sequence (Q96RJ0 1-339 W264F) with F264W, I290N

## Cc1c(F)cccc1[C@H]1COC(N)=N1 [Ro5263397]
hTA1 W264F; W246F mutant (so in the source) minus WT average
  ΔEmax values (each mutant value - WT average): -34.1318
hTA1 W264F; W246F mutant (so in the source), each line an independent experiment, 3 replicates
  pEC50 values, Mean: 5.605 and 5.96
hTA1 W264F; W246F mutant (so in the source), β-PEA = 100, each line an independent experiment, 3 replicates
  Emax values, Mean: 52.5716 and 62.1592
hTA1 W264F; W264F
  decrease in potency vs wild type: more than 1000 fold
hTA1 W264F; W264F, n=2
  Span ± SEM (Emax normalized to β-PEA): 57.37 ± 4.79
  pEC50 ± SEM: 5.78 ± 0.06
hTA1 T271A; T271A mutant minus WT average, Figure 5B
  ΔpEC50 values (each mutant value - WT average), Mean: -0.5707 and -0.4899
hTA1 T271A; T271A mutant, Figure 5B, each row one independent experiment (3 replicates)
  pEC50 values, Mean: 8.26 and 8.341
hTA1 T271A; T271A mutant, Figure 5B, β-PEA = 100, each row one independent experiment (3 replicates)
  Emax values, Mean: 76.005 and 87.3949
hTA1 T271A; T271A, n=2
  Span ± SEM (Emax normalized to β-PEA): 81.70 ± 5.69
  pEC50 ± SEM: 8.3 ± 0.07
hTA1 T271A; T271A, n=2, read-out: EC50
  EC50: 5 nM
hTA1 C96S; C96S, M = -5, single replicates (N=2)
  Normalized Luminescence Counts: 9.313 (2×) and 10.6308 and 10.8582 and 5.048 and -2.698
hTA1 C96S; C96S, M = -5.522, single replicates (N=2)
  Normalized Luminescence Counts: 2.723 and 6.018 and 1.4045 and 10.8582 and 101.879 and 20.5413
hTA1 C96S; C96S, M = -6, single replicates (N=2)
  Normalized Luminescence Counts: 1.4045 (2×) and 2.064 and 3.112 and 14.7315 and -4.6346
hTA1 C96S; C96S, M = -6.522, single replicates (N=2)
  Normalized Luminescence Counts: -1.891 (2×) and 0.08646 and -2.698 (2×) and -0.7614
hTA1 C96S; C96S, M = -7, single replicates (N=2)
  Normalized Luminescence Counts: -0.5726 and 2.723 and -2.55 and 37.9707 and -8.508 and -4.6346
hTA1 C96S; C96S, M = -7.522, single replicates (N=2)
  Normalized Luminescence Counts: 2.064 and 1.4045 and -1.232 and -2.698 and 12.7948 and -14.3176
hTA1 C96S; C96S, M = -8, single replicates (N=2)
  Normalized Luminescence Counts: -0.5726 and 0.08646 and -1.891 and 14.7315 (3×)
hTA1 C96S; C96S, M = -8.522, single replicates (N=2)
  Normalized Luminescence Counts: 0.08646 and 2.064 and -1.232 and 22.4779 and 6.985 (2×)
hTA1 C96S; C96S, M = -9, single replicates (N=2)
  Normalized Luminescence Counts: -3.868 and 0.08646 and -3.209 and 10.8582 (3×)
hTA1 C96S; C96S, M = -9.522, single replicates (N=2)
  Normalized Luminescence Counts: -3.209 and 0.08646 and -5.186 and 1.175 and 3.112 (2×)
hTA1 C96S; C96S, M = -10, single replicates (N=2)
  Normalized Luminescence Counts: -3.209 and 0.08646 and -0.5726 and 28.2877 and 5.048 and 61.21
hTA1 C96S; C96S, M = -10.522, single replicates (N=2)
  Normalized Luminescence Counts: -2.55 and -0.5726 and -3.868 and -0.7614 (2×) and 1.175
hTA1 C96S; C96S, M = -11, single replicates (N=2)
  Normalized Luminescence Counts: 0.7455 (2×) and 4.041 and 47.6538 and 53.4636 and 12.7948
hTA1 C96S; C96S, M = -11.522, single replicates (N=2)
  Normalized Luminescence Counts: 2.064 and 4.7 and 0.08646 and 8.922
hTA1 C96S; M = -11.522, single replicates, mutant block above C178S
  Normalized Luminescence Counts: 1.347 and 1.551 and 1.574 and 1.444 and 1.07 and 0.4821
hTA1 C96S; M = -12, single replicates, mutant block above C178S
  Normalized Luminescence Counts: 2.211 and 3.099 and 1.62 and 0.7492 and 1.283 and 0.5889
hTA1 C96S; M = -12.522, single replicates, mutant block above C178S
  Normalized Luminescence Counts: 0.07201 and 0.2541 and -0.1784 and 1.444 and 0.7492 and -0.5864
hTA1 F195T; F195T mutant, Figure 5B, each row one independent experiment (3 replicates)
  pEC50 values, Mean: 8.682 and 8.281
hTA1 F195T; F195T mutant, Figure 5B, β-PEA = 100, each row one independent experiment (3 replicates)
  Emax values, Mean: 106.681 and 96.1093
hTA1 F195T; F195T, n=2
  Span ± SEM (Emax normalized to β-PEA): 101.40 ± 5.29
  pEC50 ± SEM: 7.68 ± 0.60
hTA1 F195T; F195T, n=2, read-out: EC50
  EC50: 20.9 nM
hTA1 I290N; I290N, n=2
  Span ± SEM (Emax normalized to β-PEA): 83.69 ± 1.69
  pEC50 ± SEM: 8.33 ± 0.07
hTA1 I290N; I290N, n=2, read-out: EC50
  EC50: 4.63 nM
hTA1 I290N; hTA1 I290N (N=2), log[Compound], M = -5
  cAMP accumulation response, single replicate values (source data, Supplementary Figure 5): 101.804 and 110.08 and 95.4137 and 103.531
hTA1 I290N; hTA1 I290N mutant minus WT average
  ΔpEC50 values (each mutant value - WT average), Mean: -0.535 and -0.459
hTA1 I290N; hTA1 I290N mutant, Figure 3B source data, each grid row a separate experiment, 3 replicates
  pEC50 values, Mean: 8.296 and 8.372
hTA1 I290N; hTA1 I290N mutant, β-PEA set to 100, each grid row a separate experiment, 3 replicates
  Emax values, Mean: 85.3822 and 81.9937
